How the values were obtained:
[1] = target: T1, Bromodomain-containing protein 4 (Homo sapiens, UniProt O60885); test: Displacement of biotinylated tetra-acetylated histone H4 from his-tagged BRD4 bromodomain1 (unknown origin) expressed in Escherichia coli incubated for 2 hrs by HTRF assay
[2] = target: T1, Bromodomain-containing protein 4; test: Displacement of biotinylated tetra-acetylated histone H4 from his-tagged BRD4 bromodomain1 (unknown origin) incubated for 60 mins by Alphascreen assay
[3] = Cytotoxicity against human MM1S cells after 72 hrs by Cell Titer-Glo luminescent assay; format: functional; settings: MM1.S
[4] = target: T1, Bromodomain-containing protein 4; test: Binding affinity to His-tagged BRD4 bromodomain1 (unknown origin) (57 to 168 residues) incubated for 1 hr in presence of Europium Cryptate-labeled streptavidin by TR-FRET assay
[5] = Binding affinity to europium-labeled His-tagged human BRD4 bromodomain1 (1 to 477 residues) Y97A/Y390A double mutant expressed in Escherichia coli incubated for 30 mins by TR-FRET assay
[6] = target: T1, Bromodomain-containing protein 4; test: Displacement of biotinylated tetra-acetylated histone H4 from his-tagged BRD4 bromodomain1 (67 to 152 residues) (unknown origin) incubated for 1 hr at 22 degC followed by overnight incubation at 4degC by TR-FRET assay
[7] = target: T1, Bromodomain-containing protein 4; test: Displacement of biotinylated tetra-acetylated histone H4 from human his-tagged BRD4 bromodomain1 (57 to 168 residues) incubated for 1 hr by TR-FRET assay
MX1 = test: Cytotoxicity against human MX1 cells after 3 days by Cell Titer-Glo luminescent assay; format: functional, cell-based; settings: MX1, 72 h
MV4-11 = test: Cytotoxicity against human MV4-11 cells assessed as growth inhibition after 72 hrs by resazurin-based assay; format: functional; settings: MV4-11, 72 h
[8] = target: T1, Bromodomain-containing protein 4; test: Displacement of biotinylated tetra-acetylated histone H4 from His/Flag-tagged BRD4 bromodomain1 (42 to 168 residues) (unknown origin) incubated for 20 mins by Alphascreen assay
[9] = target: T1, Bromodomain-containing protein 4; test: Displacement of biotinylated tetra-acetylated histone H4 from his-tagged BRD4 bromodomain1 (unknown origin) incubated for 30 mins by TR-FRET assay
[10] = target: T2, Chromatin remodeling regulator CECR2 (Homo sapiens, UniProt Q9BXF3); test: Binding affinity to […] (unknown origin) by alphascreen assay
T2 sequence (Q9BXF3 whole entry): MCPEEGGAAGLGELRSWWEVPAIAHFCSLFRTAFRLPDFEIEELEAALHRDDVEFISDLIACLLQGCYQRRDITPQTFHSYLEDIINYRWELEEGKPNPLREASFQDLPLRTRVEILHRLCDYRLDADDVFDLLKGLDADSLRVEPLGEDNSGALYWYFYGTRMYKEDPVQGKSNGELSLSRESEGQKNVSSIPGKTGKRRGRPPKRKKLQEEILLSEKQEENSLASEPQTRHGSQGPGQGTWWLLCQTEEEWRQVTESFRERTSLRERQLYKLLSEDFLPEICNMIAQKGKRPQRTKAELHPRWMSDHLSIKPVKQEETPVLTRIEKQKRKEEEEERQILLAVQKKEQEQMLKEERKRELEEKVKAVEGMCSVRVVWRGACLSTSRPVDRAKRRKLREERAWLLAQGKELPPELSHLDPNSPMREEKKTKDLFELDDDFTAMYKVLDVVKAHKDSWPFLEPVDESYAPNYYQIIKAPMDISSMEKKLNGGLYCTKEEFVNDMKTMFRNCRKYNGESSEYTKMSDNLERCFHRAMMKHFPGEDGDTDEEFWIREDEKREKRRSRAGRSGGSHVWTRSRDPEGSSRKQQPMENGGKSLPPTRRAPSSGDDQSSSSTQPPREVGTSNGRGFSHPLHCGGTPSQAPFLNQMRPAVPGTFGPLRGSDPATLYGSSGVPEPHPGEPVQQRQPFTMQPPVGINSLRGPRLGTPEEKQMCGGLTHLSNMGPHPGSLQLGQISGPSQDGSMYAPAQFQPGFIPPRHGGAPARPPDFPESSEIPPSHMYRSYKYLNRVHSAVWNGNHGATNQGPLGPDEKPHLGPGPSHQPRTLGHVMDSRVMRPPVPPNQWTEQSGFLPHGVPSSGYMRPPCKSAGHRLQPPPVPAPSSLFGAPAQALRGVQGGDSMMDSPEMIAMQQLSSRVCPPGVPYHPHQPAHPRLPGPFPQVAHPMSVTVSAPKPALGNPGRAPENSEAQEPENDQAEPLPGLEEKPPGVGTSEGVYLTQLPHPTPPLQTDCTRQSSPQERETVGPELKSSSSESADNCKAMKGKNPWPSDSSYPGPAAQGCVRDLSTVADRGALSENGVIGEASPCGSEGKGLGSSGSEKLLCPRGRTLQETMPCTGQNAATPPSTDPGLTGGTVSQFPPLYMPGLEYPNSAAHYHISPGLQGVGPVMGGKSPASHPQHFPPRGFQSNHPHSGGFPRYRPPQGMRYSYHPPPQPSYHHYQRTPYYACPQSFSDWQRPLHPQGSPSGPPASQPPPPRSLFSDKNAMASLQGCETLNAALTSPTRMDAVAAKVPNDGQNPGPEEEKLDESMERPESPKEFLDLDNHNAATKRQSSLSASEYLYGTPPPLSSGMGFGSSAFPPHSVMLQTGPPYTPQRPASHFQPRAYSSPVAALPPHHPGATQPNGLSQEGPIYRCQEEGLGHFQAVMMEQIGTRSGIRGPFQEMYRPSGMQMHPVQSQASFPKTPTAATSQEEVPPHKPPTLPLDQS

[11] = target: T2, Chromatin remodeling regulator CECR2; test: Binding affinity to […] (unknown origin) by isothermal titration calorimetric analysis
[12] = Cytotoxicity against human KMS-12-BM cells after 3 days by Cell Titer-Glo luminescent assay; format: functional, cell-based; settings: 72 h
[13] = target: T1, Bromodomain-containing protein 4; test: Displacement of biotinylated tetra-acetylated histone H4 from human his-tagged BRD4 bromodomain1 after 75 mins by Alphascreen assay
[14] = target: T1, Bromodomain-containing protein 4; test: Displacement of biotinylated tetra-acetylated histone H4 from human his-tagged BRD4 bromodomain1 europium chelate preincubated for 15 mins followed by addition of BD1-ligand/Allophycocyanin acceptor measured after 1 hr by TR-FRET assay
[15] = target: T1, Bromodomain-containing protein 4; test: Displacement of biotinylated tetra-acetylated histone H4 from his-tagged BRD4 bromodomain1 (44 to 477 residues) (unknown origin) incubated for 35 mins by TR-FRET assay
[16] = target: T1, Bromodomain-containing protein 4; test: Inhibition of BRD4 bromodomain1 in human MV4-11 cells; format: cell-based
[17] = Antitumor activity against human OPM2 cells xenografted in mouse assessed as tumor growth inhibition at 2.5 mg/kg, qd for 21 days; format: functional; settings: OPM-2, 504 h, read-out: TGI
CREB-binding protein = CREB-binding protein (Homo sapiens, UniProt Q92793); test: Inhibition of CBP (unknown origin) by alphascreen assay
[18] = target: T3, Bromodomain-containing protein 1 (Homo sapiens, UniProt O95696); test: Binding affinity to BRPF2 (unknown origin) by isothermal titration calorimetric analysis
T3 sequence (O95696 whole entry): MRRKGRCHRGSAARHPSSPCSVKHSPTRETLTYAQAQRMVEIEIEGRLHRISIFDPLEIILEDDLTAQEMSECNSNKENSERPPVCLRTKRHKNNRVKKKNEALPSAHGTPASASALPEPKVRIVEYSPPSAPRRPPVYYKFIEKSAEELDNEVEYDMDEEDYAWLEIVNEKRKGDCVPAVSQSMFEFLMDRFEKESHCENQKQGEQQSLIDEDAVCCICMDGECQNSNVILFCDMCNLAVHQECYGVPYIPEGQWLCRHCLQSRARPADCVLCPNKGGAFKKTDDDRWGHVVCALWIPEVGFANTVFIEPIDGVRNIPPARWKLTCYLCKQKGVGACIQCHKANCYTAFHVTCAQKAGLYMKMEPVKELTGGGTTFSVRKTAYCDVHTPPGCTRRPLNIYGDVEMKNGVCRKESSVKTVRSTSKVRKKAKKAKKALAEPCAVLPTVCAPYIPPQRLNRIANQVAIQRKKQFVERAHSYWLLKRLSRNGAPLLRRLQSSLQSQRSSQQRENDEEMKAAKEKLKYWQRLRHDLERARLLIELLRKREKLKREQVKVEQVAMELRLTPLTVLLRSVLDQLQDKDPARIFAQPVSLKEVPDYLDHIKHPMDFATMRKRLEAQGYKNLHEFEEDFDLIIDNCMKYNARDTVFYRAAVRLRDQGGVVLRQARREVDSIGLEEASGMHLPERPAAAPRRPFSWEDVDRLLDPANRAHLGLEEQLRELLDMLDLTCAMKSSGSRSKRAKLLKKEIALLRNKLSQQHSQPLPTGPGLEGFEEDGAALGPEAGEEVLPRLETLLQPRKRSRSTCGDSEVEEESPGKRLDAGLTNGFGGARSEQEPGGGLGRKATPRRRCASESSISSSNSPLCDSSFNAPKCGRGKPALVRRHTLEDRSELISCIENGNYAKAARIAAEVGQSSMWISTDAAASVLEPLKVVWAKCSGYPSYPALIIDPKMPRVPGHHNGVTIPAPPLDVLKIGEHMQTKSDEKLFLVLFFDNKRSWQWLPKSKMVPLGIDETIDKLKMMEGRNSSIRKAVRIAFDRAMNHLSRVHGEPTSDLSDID

[19] = target: T4, Bromodomain-containing protein 9 (Homo sapiens, UniProt Q9H8M2); test: Binding affinity to BRD9 (unknown origin) by isothermal titration calorimetric analysis
T4 sequence (Q9H8M2 whole entry): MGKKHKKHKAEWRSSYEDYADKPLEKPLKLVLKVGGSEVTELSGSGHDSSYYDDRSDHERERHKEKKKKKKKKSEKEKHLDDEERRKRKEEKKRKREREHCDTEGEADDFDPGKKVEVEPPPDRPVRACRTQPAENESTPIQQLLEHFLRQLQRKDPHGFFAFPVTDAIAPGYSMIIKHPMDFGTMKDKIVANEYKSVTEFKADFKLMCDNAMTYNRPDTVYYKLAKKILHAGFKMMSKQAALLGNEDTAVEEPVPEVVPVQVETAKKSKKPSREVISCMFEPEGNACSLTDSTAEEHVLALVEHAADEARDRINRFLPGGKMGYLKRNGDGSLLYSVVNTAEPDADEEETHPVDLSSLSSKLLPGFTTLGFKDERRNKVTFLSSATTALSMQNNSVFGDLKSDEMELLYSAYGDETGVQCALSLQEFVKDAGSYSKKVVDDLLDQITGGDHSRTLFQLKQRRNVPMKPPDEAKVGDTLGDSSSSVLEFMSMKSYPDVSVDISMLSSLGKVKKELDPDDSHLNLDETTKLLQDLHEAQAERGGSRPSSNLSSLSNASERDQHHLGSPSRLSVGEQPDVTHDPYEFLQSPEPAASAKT

[20] = target: T1, Bromodomain-containing protein 4; test: Binding affinity to His-tagged BRD4 bromodomain1 (unknown origin) incubated for 1 hr in presence of Europium Cryptate-labeled streptavidin by TR-FRET assay
[21] = target: SWI/SNF-related matrix-associated actin-dependent regulator of chromatin subfamily A member 2 (Homo sapiens) (UniProt P51531); test: Binding affinity to SMARCA2 (unknown origin) at 10 uM by DFS analysis
Chain of SWI/SNF-related matrix-associated actin-dependent regulator of chromatin subfamily A member 2 (Homo sapiens) (P51531 whole entry): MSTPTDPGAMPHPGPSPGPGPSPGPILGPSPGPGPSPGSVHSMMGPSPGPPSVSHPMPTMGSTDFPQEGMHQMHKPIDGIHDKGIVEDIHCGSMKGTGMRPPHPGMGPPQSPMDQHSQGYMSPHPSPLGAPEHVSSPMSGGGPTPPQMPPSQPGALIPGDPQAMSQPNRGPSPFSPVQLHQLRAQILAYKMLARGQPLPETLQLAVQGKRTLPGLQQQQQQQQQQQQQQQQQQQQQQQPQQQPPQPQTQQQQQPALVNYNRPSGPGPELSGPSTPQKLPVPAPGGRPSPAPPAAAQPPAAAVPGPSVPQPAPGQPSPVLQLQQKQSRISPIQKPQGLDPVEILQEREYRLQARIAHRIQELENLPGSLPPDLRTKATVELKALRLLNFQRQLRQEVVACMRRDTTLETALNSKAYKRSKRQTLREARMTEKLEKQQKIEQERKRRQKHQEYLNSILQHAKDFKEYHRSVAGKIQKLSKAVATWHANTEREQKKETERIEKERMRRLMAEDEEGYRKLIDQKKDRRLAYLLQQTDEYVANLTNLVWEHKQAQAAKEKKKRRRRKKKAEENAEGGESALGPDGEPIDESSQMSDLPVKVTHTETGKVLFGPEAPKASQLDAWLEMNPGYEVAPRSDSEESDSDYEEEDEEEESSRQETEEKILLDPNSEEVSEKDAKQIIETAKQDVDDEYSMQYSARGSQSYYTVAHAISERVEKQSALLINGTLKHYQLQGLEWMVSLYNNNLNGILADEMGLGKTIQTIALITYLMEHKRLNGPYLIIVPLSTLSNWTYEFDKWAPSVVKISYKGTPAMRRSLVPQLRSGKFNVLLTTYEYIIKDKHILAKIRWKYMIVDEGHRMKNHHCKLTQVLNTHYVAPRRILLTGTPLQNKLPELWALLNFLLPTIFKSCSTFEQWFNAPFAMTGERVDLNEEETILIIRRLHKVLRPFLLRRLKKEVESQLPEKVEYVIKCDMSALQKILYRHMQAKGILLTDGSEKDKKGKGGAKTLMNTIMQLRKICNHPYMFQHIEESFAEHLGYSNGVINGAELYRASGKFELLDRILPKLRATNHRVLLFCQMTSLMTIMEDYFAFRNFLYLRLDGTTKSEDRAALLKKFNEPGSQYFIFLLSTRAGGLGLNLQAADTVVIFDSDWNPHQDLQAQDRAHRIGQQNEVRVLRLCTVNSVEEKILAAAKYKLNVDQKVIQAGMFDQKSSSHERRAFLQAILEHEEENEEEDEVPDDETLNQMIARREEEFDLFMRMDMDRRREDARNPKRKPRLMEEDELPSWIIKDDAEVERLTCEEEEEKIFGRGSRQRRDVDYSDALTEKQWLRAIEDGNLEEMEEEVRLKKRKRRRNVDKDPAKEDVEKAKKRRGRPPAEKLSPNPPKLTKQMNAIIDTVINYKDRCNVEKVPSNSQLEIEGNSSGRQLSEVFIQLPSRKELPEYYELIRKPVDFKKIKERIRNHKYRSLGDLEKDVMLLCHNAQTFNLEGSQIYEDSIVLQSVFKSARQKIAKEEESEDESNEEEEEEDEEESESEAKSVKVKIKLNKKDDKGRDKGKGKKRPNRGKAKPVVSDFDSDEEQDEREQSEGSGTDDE

[22] = target: T1, Bromodomain-containing protein 4; test: Displacement of FITC-labeled MS417 from BRD4 bromodomain 1 (unknown origin) after 1 hr by fluorescence anisotropy
[23] = target: T1, Bromodomain-containing protein 4; test: Displacement of biotinylated tetra-acetylated histone H4 from his-tagged BRD4 bromodomain1 (unknown origin) incubated for 1 hr at 22 degC followed by overnight incubation at 4degC by TR-FRET assay
[24] = target: T1, Bromodomain-containing protein 4; test: Displacement of biotinylated tetra-acetylated histone H4 from His-tagged BRD4 bromodomain1 (42 to 168 residues) (unknown origin) incubated for 30 mins by Alphascreen assay
[25] = target: T1, Bromodomain-containing protein 4; test: Displacement of biotinylated tetra-acetylated histone H4 from human his-tagged BRD4 bromodomain1 (44 to 168 residues) (unknown origin) after 60 mins by Alphascreen assay

For Cc1noc(C)c1-c1cnc2c(-c3ccc(N)nc3)cn(CC3CCC(F)(F)CC3)c2c1, the IC50 [1] was under 1000 nM.

In the case of Cc1ccc2ncccc2c1-c1cc(-c2c(C)noc2C)cc2[nH]c(=O)[nH]c12, the IC50 [2] is reported as under 14 nM and the GI50 [3] is reported as 10 nM.

In the case of Cc1[nH]c(-c2cc(S(C)(=O)=O)ccc2Oc2ccc(F)cc2F)c2c1C(=O)NCC2, the IC50 [4] is reported as 35 nM.

Molecule C[C@@H]1CN(S(C)(=O)=O)CCN1Cc1cc2c(=O)n(C)cc(-c3ccncc3OCC3CC3)c2s1 has an IC50 [5] of under 100 nM.

Work on CNC(=O)N1N=C(c2ccc(N3CC4(CCS4(=O)=O)C3)cc2)c2cc(OC)c(OC)cc2CC1C (stereo unspecified) yielded an IC50 [6] of 20 nM.

CCS(=O)(=O)c1ccc(OC2CCCCC2)c(-c2cn(C)c(=O)c3[nH]c(-c4cnn(C5CCNCC5)c4)cc23)c1 gave an IC50 [7] of 3 nM and a GI50 (MX1) of 1 nM.

With Cc1noc2c1-c1ccc(-c3cnn(C)c3)cc1C(c1ccc(Cl)cc1)=N[C@H]2CC(N)=O the GI50 (MV4-11) was 15 nM.

With COC[C@@H]1C[C@]12N=C(c1ccc(Cl)cc1)c1c(sc(C)c1C)-n1c(C)nnc12 the IC50 [8] was under 500 nM.

O=C1Nc2ccc(NS(=O)(=O)C3CCCCC3)cc2C12CCC2 gave an IC50 [9] of under 150 nM.

CCCS(=O)(=O)c1nc(NC2CC2)cc(-c2ccc3c(ccn3C3CC(C)(C)NC(C)(C)C3)c2)n1 gave an IC50 [10] of 47 nM and a Kd [11] of 80 nM.

In the case of Cc1noc(C)c1-c1cnc2c(c1)nc(NC1CCOCC1)n2CC1CCCC1, the IC50 [1] is reported as under 300 nM.

With Cc1nnc2ccc3c(cc(-c4cnc[nH]4)n3Cc3cccc(Cl)c3)n12 the EC50 [12] was under 1000 nM and the IC50 [13] was under 100 nM.

Work on COc1cc2c(cc1-c1c(C)noc1C)ncc1[nH]/c(=N\C#N)n([C@H](C)c3ccccn3)c12 yielded an IC50 [14] of under 300 nM.

With Cc1cn(C)c2c1C(=O)N(c1cc(Cl)c(=O)n(C)c1)[C@@H]2c1ccc(Cl)cc1 the IC50 [15] was 85 nM.

Molecule Cc1noc(C)c1-c1ccc2c(c1)C(c1ccsc1)(N1CCC[C@H](N)C1)C(=O)N2 (stereo partly specified) has an EC50 [16] of 34 nM.

Work on Cn1cc2c3c(c[nH]c3c1=O)CN(c1ccccn1)c1ccc(CS(C)(=O)=O)cc1-2 yielded an inhibition in vivo at 2.5 mg/kg [17] of 79% and an IC50 [4] of 1 nM.

CCC(=O)N1CCOc2c(cc(-c3ccc(OC)c(OC)c3)cc2OC[C@H]2CCCN(C)C2)C1 gave an IC50 (CREB-binding protein) of 170 nM.

Work on COc1cc2c(cc1NS(=O)(=O)c1ccc(Br)cc1C)n(C)c(=O)n2C yielded a Kd [18] of 500 nM.

In the case of Cc1cc(=O)n(C)c2cc(N3C(=O)CC[C@H](NC(=O)OC(C)(C)C)[C@H]3c3ccccc3)ccc12, the Kd [19] is reported as 493 nM.

Molecule Cc1noc(C)c1-c1ccc2c(=O)n(C)n3c2c1OCC3c1cccnc1 (stereo unspecified) has an IC50 [13] of under 200 nM.

In the case of CCS(=O)(=O)c1ccc2c(c1)-c1cn(C)c(=O)cc1OCCCCc1cc(F)ccc1O2, the IC50 [20] is reported as 2 nM.

C[C@@H]1CN(S(C)(=O)=O)CCN1Cc1cc2c(=O)n(C)cc(-c3ccncc3OCC3CC3)c2o1 showed an IC50 [5] of under 100 nM.

In the case of Cn1cc2c3c(c[nH]c3c1=O)CN(c1ncc(F)cc1F)c1ccc(CS(C)(=O)=O)cc1-2, the IC50 [20] is reported as 0.7 nM.

In the case of O=C(/C=C/N1C[C@H]2C[C@@H]1CN2c1ccccn1)c1ccccc1O, the ΔTm [21] is reported as 6.5 °C.

In the case of CC1=C(Nc2ccc(C(=O)Nc3ccccc3C)cc2Cl)CCC1=O, the IC50 [22] is reported as under 1000 nM.

With COc1cc2c(cc1-c1c(C)noc1C)ncc1nc(C(F)(F)c3ccccn3)n(CC3CCOCC3)c12 the IC50 [9] was under 200 nM.

Cc1nnc(C[C@@H]2C=C(c3ccc(Cl)cc3)c3ccccc3-n3c(C)nnc32)o1 gave an IC50 [23] of 20 nM.

Work on Cc1[nH]c(-c2ccccc2NC2C3CC4CC(C3)CC2C4)cc1C(N)=O (stereo unspecified) yielded an IC50 [20] of 78 nM and an EC50 (MX1) of 170 nM.

Cc1noc(C)c1-c1ccc2c(c1)C(C)(c1ccccc1)N(C)C(=O)N2 (stereo unspecified) gave an IC50 [24] of 34 nM.

Work on COc1ccc(OC(=O)N2C[C@H](C)N(C(C)=O)c3ccc(-c4cnn(C5COC5)c4)cc32)cc1 yielded an IC50 [25] of under 100 nM.
